Experimental data from patent US8163728B2, “Pyrazoles” (Hoffmann-La Roche Inc., priority 2009, dated 2012).

Target: T1, GABA A α5 (Homo sapiens, UniProt P18507+P31644)
T1 construct: expressed in transfected cells; host or cells: HEK293 cells, transiently transfected; membranes prepared from cell pellets
Experiment: [3H]flumazenil competition binding, human GABA A α5β3γ2 receptors in HEK293 cell membranes
Conditions: human receptor α5β3γ2 transiently transfected in HEK293; 0.5 nM [3H]flumazenil; 1 hour at 4° C.; means of two determinations; read-out: hKi GABA A α5
How it was run: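 Competition with [3H]flumazenil for binding to membranes of HEK293 cells transiently expressing human α5β3γ2, in Krebs-tris buffer pH 7.5. Incubated to equilibrium 1 h at 4 °C, filtered and scintillation-counted; Ki values are means of two determinations.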

SMILES | Ki
Cc1onc(-c2ccc(F)cc2)c1COc1cc(C(=O)NCC(O)C(F)(F)F)n(C)n1 (single isomer, unassigned; (+)) [Example 67, (+)-5-[3-(4-Fluoro-phenyl)-5-methyl-isoxazol-4-ylmethoxy]-2-methyl-2H-pyrazole-3-carboxylic acid ((S or R)-3,3,3-trifluoro-2-hydroxy-propyl)-amide or enantiomer] | 2.4 nM
O=C(NN1CCOCC1)c1cc(OCc2conc2-c2ccc(F)cn2)n[nH]1 [Example 25, 5-[3-(5-Fluoro-pyridin-2-yl)-isoxazol-4-ylmethoxy]-2H-pyrazole-3-carboxylic acid morpholin-4-ylamide] | 13.6 nM
CCCCc1noc(C)c1COc1cc(C(=O)NC2CCOC2)n(C)n1 (racemic) [Example 89, Rac-5-(3-Butyl-5-methyl-isoxazol-4-ylmethoxy)-2-methyl-2H-pyrazole-3-carboxylic acid (tetrahydro-furan-3-yl)-amide] | 20.3 nM
Cc1onc(-c2ccc(F)cc2)c1COc1cc(C(=O)N[C@@H](C)CO)n(C)n1 (single isomer, unassigned) [Example 75, (+)-5-[3-(4-Fluoro-phenyl)-5-methyl-isoxazol-4-ylmethoxy]-2-methyl-2H-pyrazole-3-carboxylic acid ((R)-2-hydroxy-1-methyl-ethyl)-amide or 5-[3-(4-fluoro-phenyl)-5-methyl-isoxazol-4-ylmethoxy]-2-methyl-2H-pyrazole-3-carboxylic acid ((S)-2-hydroxy-1-methyl-ethyl)-amide or enantiomer] | 5.7 nM
Cc1onc(-c2ccc(F)cc2)c1COc1cc(C(=O)NN(C)C)[nH]n1 [Example 11, 5-[3-(4-Fluoro-phenyl)-5-methyl-isoxazol-4-ylmethoxy]-2H-pyrazole-3-carboxylic acid N′,N′-dimethyl-hydrazide] | 4.9 nM
Cc1onc(-c2ccccc2)c1COc1cc(C(=O)NC2CCOCC2)[nH]n1 [Example 3, 5-(5-Methyl-3-phenyl-isoxazol-4-ylmethoxy)-2H-pyrazole-3-carboxylic acid (tetrahydro-pyran-4-yl)-amide] | 3.1 nM
Cn1nc(OCc2c(-c3ccc(Cl)cc3)noc2CO)cc1C(=O)NC1CCOC1 (racemic) [Example 110, Rac-5-[3-(4-Chloro-phenyl)-5-hydroxymethyl-isoxazol-4-ylmethoxy]-2-methyl-2H-pyrazole-3-carboxylic acid (tetrahydro-furan-3-yl)-amide] | 2.7 nM
Cc1onc(-c2ccccn2)c1COc1cc(C(=O)NC(C)C)n[nH]1 [Example 14, 5-(5-Methyl-3-pyridin-2-yl-isoxazol-4-ylmethoxy)-1H-pyrazole-3-carboxylic acid isopropylamide] | 9.3 nM

Second part, the molecule after the results:

Ki | SMILES
6.8 nM | Cc1onc(-c2ccc(F)cn2)c1COc1cc(C(=O)N[C@@H](C)CO)nn1C [Example 117, 5-[3-(5-Fluoro-pyridin-2-yl)-5-methyl-isoxazol-4-ylmethoxy]-1-methyl-1H-pyrazole-3-carboxylic acid ((S)-2-hydroxy-1-methyl-ethyl)-amide]
0.9 nM | Cc1onc(-c2ccc(F)cc2)c1/C=C/c1cc(C(=O)NC(C)CO)n(C)n1 (centres unmarked) [Example 130, 5-{(E)-2-[3-(4-Fluoro-phenyl)-5-methyl-isoxazol-4-yl]vinyl}-2-methyl-2H-pyrazole-3-carboxylic acid (2-hydroxy-1-methyl-ethyl)-amide]
49.6 nM | Cc1onc(-c2ccc(F)cc2)c1/C=C\c1cc(C(=O)NC(C)CO)n(C)n1 (centres unmarked) [Example 121, 5-{(Z)-2-[3-(4-Fluoro-phenyl)-5-methyl-isoxazol-4-yl]vinyl}-2-methyl-2H-pyrazole-3-carboxylic acid (2-hydroxy-1-methyl-ethyl)-amide]
